These results are taken from patent publication US8524465B2, “Agonists of bitter taste receptors and uses thereof” (Deutsches Institut fuer Ernaehrungsforschung …, priority 2007, dated 2013).

Each structure is given as a SMILES string.

The target of one assay is T1, TAS2R4 (Homo sapiens, UniProt Q9NYW5).
T1 construct: expressed in transfected cells; host or cells: HEK-293T cells stably expressing the chimeric G-protein subunit Gα16gust44
T1 sequence (Q9NYW5 1-299): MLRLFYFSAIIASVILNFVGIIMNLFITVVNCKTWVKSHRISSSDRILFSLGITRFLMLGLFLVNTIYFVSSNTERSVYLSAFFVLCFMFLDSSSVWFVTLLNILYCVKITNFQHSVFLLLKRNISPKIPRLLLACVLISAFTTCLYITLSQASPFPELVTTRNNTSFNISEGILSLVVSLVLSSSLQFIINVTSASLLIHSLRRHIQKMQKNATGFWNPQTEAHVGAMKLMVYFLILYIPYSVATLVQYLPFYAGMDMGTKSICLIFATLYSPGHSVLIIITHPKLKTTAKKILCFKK
Put plainly: FLIPR calcium imaging, HEK-293T Gα16gust44 cells expressing TAS2R4. In kind it is cell-based. On the procedure: (§1) Tastants (Sigma-Aldrich, Taufkirchen, Germany) were dissolved and administered in the following (in mM): 130 NaCl, 5 KCl, 10 HEPES, 2 CaCl2, and 10 mM glucose, pH7.4. Data were collected from 1-2 independent experiments performed at least in triplicate and processed with SigmaPlot (SPSS, Chicago, Ill.). For dose-response curve calculation, the peak fluorescence responses after compound addition were corrected for and normalized to background fluorescence (ΔF/F=(F−F0)/F0), and baseline noise was subtracted.
(§2) All 25 human bitter taste receptors were challenged with 100 μM artemorin (FIG. 1) in a FLIPR calcium imaging experiment.

The next assay has as its system mock-transfected cells. To be noted: 1 mM PROP. On the procedure:
as §1, §2

The target in a further assay is T2, TAS2R14 (Homo sapiens, UniProt Q9NYV8).
T2 construct: expressed in transfected cells; host or cells: HEK-293T cells stably expressing the chimeric G-protein subunit Gα16gust44
T2 sequence (Q9NYV8 1-317): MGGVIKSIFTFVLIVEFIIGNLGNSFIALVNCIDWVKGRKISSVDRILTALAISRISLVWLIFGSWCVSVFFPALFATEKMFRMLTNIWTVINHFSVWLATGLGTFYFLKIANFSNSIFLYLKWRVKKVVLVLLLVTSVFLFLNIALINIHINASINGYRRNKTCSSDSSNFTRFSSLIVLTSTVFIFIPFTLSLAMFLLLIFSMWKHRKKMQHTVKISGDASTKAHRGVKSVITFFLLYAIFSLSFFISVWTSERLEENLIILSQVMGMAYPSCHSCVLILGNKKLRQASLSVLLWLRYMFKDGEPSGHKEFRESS
Description: FLIPR calcium imaging, HEK-293T Gα16gust44 cells expressing TAS2R14. The format is cell-based. To be noted: for molar range at which TAS2R14 responded to the bitter substance: calcium response, transfected HEK-293T Gα16gust44 cells, FLIPR. As for the experimental part: as §1, §2

In a further assay the target is T3, TAS2R10 (Homo sapiens, UniProt Q9NYW0, T156M).
T3 construct: expressed in transfected cells; host or cells: HEK-293T cells stably expressing the chimeric G-protein subunit Gα16gust44
T3 sequence (Q9NYW0 1-307 T156M): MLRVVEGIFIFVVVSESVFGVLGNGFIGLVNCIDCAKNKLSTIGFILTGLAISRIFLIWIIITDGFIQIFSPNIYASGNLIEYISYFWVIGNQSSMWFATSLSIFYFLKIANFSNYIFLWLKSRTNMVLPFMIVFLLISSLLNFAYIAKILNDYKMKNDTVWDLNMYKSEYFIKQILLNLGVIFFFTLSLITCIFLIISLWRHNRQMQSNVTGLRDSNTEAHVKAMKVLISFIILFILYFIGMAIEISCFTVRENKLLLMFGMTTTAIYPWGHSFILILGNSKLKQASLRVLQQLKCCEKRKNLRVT
Put plainly: FLIPR calcium imaging, HEK-293T Gα16gust44 cells expressing TAS2R10. The format is cell-based. On the procedure: as §1, §2

Setting [1] is: challenged with 100 μM artemorin, FIG. 2.

For the compound `CCCc1cc(=O)[nH]c(=S)[nH]1` [propylthiouracil], the “calcium responses in TAS2R4-expressing cells” value on TAS2R4 (result in words) was “very small (somewhat questionable) and no dose-dependency can be shown”. Further, the “signals of mock-transfected cells” value with mock-transfected cells is “elicits endogenous signals of mock-transfected cells”.
Regarding `CCNC(=S)NCC` [N,N′-Diethylthiourea], the “molar range at which TAS2R14 responded to the bitter substance” value on TAS2R14 was 10 mM.
`C=C1C(=O)O[C@@H]2[C@H]3C(C)=CC[C@@]34O[C@@]4(C)CC[C@@H]12` [Arglabin]: the “molar range at which TAS2R10 responded to the bitter substance” value on TAS2R10 (calcium response, transfected HEK-293T Gα16gust44 cells, FLIPR) was 0.1 mM. Moreover, at TAS2R14, the “molar range at which TAS2R14 responded to the bitter substance” value worked out at 0.1 mM.
For the compound `C=C1CC[C@H]2C(=C)C(=O)O[C@@H]2/C=C(\C)CC[C@H]1O` [artemorin], at TAS2R4 (setting [1]), the “receptor response in FLIPR calcium imaging experiment (TAS2R4)” value is listed as “responded to artemorin in a dose-dependent manner”. Also, at TAS2R10 (setting [1]), the “receptor response in FLIPR calcium imaging experiment (TAS2R10)” value is on record as “responded to artemorin in a dose-dependent manner”. Further, the “receptor response in FLIPR calcium imaging experiment (TAS2R14)” value at TAS2R14 (setting [1]) is recorded as “responded to artemorin in a dose-dependent manner”.
